Data reported in patent publication EP0110570A2, “Triazole antifungal agents” (Pfizer Limited, priority 1982, dated 1984).
Read-outs that look alike come from different tables or passages of the source.

Test system: Candida albicans
Experiment: In vivo protection of mice inoculated with Candida albicans (PD50)
Conditions: read-out: PD50
Protocol: The in vivo evaluation of the compounds can be carried out at a series of dose levels by intraperitoneal or intravenous injection or by oral administration, to mice which are inoculated with a strain of Candida albicans. Activity is based on the survival of a treated group of mice after the death of an untreated group of mice following 48 hours observation. The dose level at which the compound provides 50% protection against the lethal effect of the infection (PD50) is noted.
Using the test method described previously in the text, the following PD50 values (mg./kg.) were obtained in mice infected with Candida albicans:-

[1] = mice infected with Candida albicans, dose level giving 50% protection against the lethal effect of the infection, survival after 48 hours observation, route not specified (intraperitoneal, intravenous or oral)

Question: Which ED50 [1] does the source give for `Fc1ccc(C(Cl)(Cn2cncn2)C(F)(F)F)c(F)c1` (centres unmarked) [Example 1, 1-[2-chloro-2-(2,4-difluorophenyl)-3,3,3-trifluoropropyl]-1H-1,2,4-triazole] here?
Answer: Its ED50 is 0.15 mg/kg.

Question: Which ED50 [1] does the source give for `FC(F)(F)C(Cl)(Cn1cncn1)c1ccc(Cl)cc1` (centres unmarked) [Example 2] here?
Answer: The ED50 was 0.6 mg/kg.

Question: `Fc1ccc(C(Cl)(Cn2cncn2)C(F)(F)F)cc1` (centres unmarked) [Example 3] was tested. Which ED50 [1] did it give?
Answer: Its ED50 is 0.6 mg/kg.

Question: With `Fc1ccc(C(Cl)(Cn2cncn2)C(F)(F)C(F)(F)F)cc1` (centres unmarked) [Example 4] as the molecule, how does the ED50 [1] read?
Answer: The ED50 was less than 1 mg/kg.

Question: Which ED50 (Candida albicans, 48 h) does the source give for `Fc1ccc(C(Cl)(Cn2cncn2)C(F)(F)C(F)(F)C(F)(F)F)c(F)c1` (centres unmarked) [Example 5] here?
Answer: Its ED50 is less than 1 mg/kg.
